# In PubChem BioAssay AID488790 (NMMLSC, 2010):
# Test system: S. cerevisiae AGP1-GFP strain, flow cytometry fluorescence, 3 h
# Test: analog potency on AGP1-GFP expression in yeast, SAR follow-up, cell-based, flow cytometry, S. cerevisiae, cherry pick 3 (AID 488790)
smiles,measurement,value
CCOC(=O)CS(=O)(=O)c1nc(-c2ccccc2)cc(C(F)(F)F)n1,EC50,4.59 µM
